Measurements as given in patent publication EP0152574A1, “6-Ethoxy-4-methyl-benzothiazol-2(3H)-one, processes for its preparation and medicaments containing this compound” (priority 1983, dated 1985).

Columns and labels:
[1] = test system: Entzündungsschmerz der Ratte; test: Inflammatory pain test according to RANDALL and SELITTO (yeast-inflamed paw, pain threshold); format: in vivo; conditions: 1.5 h; rat, oral, 90 min after dosing; dose raising pain threshold by 50 %; confidence limits in brackets
Method: l.) Die Prüfung der Wirkung gegen den Entzündungsschmerz der Ratte erfolgte mit der Methode nach RANDALL u. SELITTO (Arch. int. Pharmacodyn. 111, 409 (1957)). Die Prüfsubstanzen wurden männlichen Ratten mit einem Gewicht zwischen 100 und 130 g als Verreibung in 1%iger Methylzellulose (1,0 ml/100 g Tier) 90 Minuten nach der subplantaren Hefegabe per Schlundsonde verabfolgt. Aus der 90 Minuten nach Gabe der verschiedenen Dosen der Prüfsubstanz gemessenen Schmerzschwelle wurde nach linearer Regressionsanalyse eine ED50 als jene Dosis ermittelt, die eine Anhebung der Schmerzschwelle um 50 % bewirkt.

Hefefieber der Ratte = test: Antipyretic action against yeast-induced fever; format: in vivo; parameters: unit not given here; conditions: rat, oral, 2 h after dosing; dose lowering yeast fever by 1°C; limits in brackets
Method: 2. Die Prüfung der antipyretischen Wirkung erfolgte gegen das durch subcutane Gabe von 100 mg Hefe/100 g Tier ausgelöste Fieber an 120-150 g schweren männlichen Ratten. Die Prüfsubstanzen wurden 4 Stunden nach Hefegabe als Verreibung in l%iger Methylzellulose (1,0 ml/100 g) per Schlundsonde verabfolgt. Aus der 2 Stunden danach gefundenen Veränderung der Rektaltemperatur gegenüber der der Kontrolltiere wurde nach linearer Regressionsanalyse eine ED-1,0°C als jene Dosis berechnet, die das Hefefieber um 1°C senkte.

in vivo = conditions: rat, oral, 14 days observation, limits in brackets
Method: 3.) Die Bestimmung der akuten Toxizität erfolgte an Ratten beider Geschlechter mit einem Gewicht zwischen 120 und 150 g. Die Prüfsubstanzen wurden als Verreibung in l%iger Methylzellulose (2,0 ml/100 g Tier) per Schlundsonde appliziert. Die Berechnung der LD50 erfolgte nach […] u.

[2] = test system: Glutathiongehalt der Mäuseleber; test: Effect on liver glutathione content (ELLMAN method); format: in vivo, Maus
Method: 4.) Der Einfluß auf den Glutathion-Gehalt der Leber wurde an männlichen Mäusen mit einem Gewicht zwischen 25 und 30 g untersucht. 2 Stunden nach oraler Gabe der Prüfsubstanz (als Verreibung in l%iger Methylzellulose, 0,2 ml/10 g Tier) wurde die Leber entnommen.
Für die prognostische Beurteilung einer Hepatotoxizität ist die Erschöpfung der Glutathionvorräte in der Leber ein geeigneter Indikator.

SMILES	ED50 [1] [mg/kg]	ED-1,0 °C (Hefefieber der Ratte)	LD50 at 336 h (in vivo) [mg/kg]	Verminderung des Leberzellglutathion ([2]; in vivo, po, 1000 mg/kg)	red. GSH x̄ ([2]; in vivo, po, 1000 mg/kg)	Δ gegen Kontrollen ([2]; in vivo, po, 1000 mg/kg)	Δ gegen Kontrollen ([2]; in vivo, po, 160 mg/kg)	Δ gegen Kontrollen ([2]; in vivo, po, 200 mg/kg)	Δ gegen Kontrollen ([2]; in vivo, po, 250 mg/kg)	Δ gegen Kontrollen ([2]; in vivo, po, 315 mg/kg)	red. GSH x̄ ([2]; mouse liver, 2 h after oral 1000 mg/kg)	Verminderung des Leberzellglutathion ([2]; single oral dose 1000 mg/kg, mouse, critical range = depletion by more than 50 %) [%]
COc1cc(C)c2[nH]c(=O)sc2c1 [Substanz B, 6-Methoxy-4-methyl-benzothiazol-2(3H)-on]	23	29,6 (25,0-34,0)	7580	> 50%	3,42	- 56,4%	–	–	–	–	–	–
CCOc1cc(C)c2[nH]c(=O)sc2c1 [Substanz A, 6-Ethoxy-4-methyl-benzothiazol-2(3H)-on]	24.1	31,2 (25,1-36,5)	> 4000	deutlich schwächer und unterhalb des kritischen Bereiches	5,02	- 36,0%	–	–	–	–	–	–
CC(=O)Nc1ccc(O)cc1 [Substanz D, p-Hydroxy-acetanilid]	215	123 (84,0-155)	3960	–	–	–	- 32,7%	- 51,3%	- 65,7%	- 82,4%	–	–
Cc1cc(C)c2[nH]c(=O)sc2c1 [Substanz C, 4,6-Dimethyl-benzothiazol-2(3H)-on]	49.7	18,1 (11,3-23,7)	–	–	–	–	–	–	–	–	2,90 mMol/g	> 50
